The text below walks through data of publication PMC8225045, “Chemical Synthesis and Structure-Activity Relationship Study Yield Desotamide a Analogues with Improved Antibacterial Activity” (Marine Drugs, 2021).

For experiment [1], the system named is E. coli ATCC 13124. The method, then: (§1) All the synthesized cyclopeptides (7–19) and the desotamide A (1) isolated from S. scopuliridis SCSIO ZJ46 were evaluated for antibacterial activities against a series of Gram-positive pathogens including […] Staphylococcus aureus ATCC29213, Bacillus subtilis BS01, Micrococcus luteus ML01, Enterococcus faecalis ATCC29212; 3 drug-resistant poultry pathogens Staphylococcus simulans LJH13, Enterococcus gallinarum LJH11, Staphylococcus haemolyticus LJH9; 4 clinical methicillin-resistant Staphylococcus aureus (MRSA) shhs-E1, MRSA 16339, MRSA 745524, MRSA 16162. Their antibacterial activities against the […] pathogens Escherichia coli ATCC 13,124 and clinical drug-resistant Klebsiella pneumonia 15580 were also assayed.
(§2) Ampicillin, vancomycin and polymyxin were used as control. The maximum test concentrations for all the compounds were 128 μg/mL.

The subject of experiment [2] is Klebsiella pneumoniae 15580. The method, then:
as §1, §2

Experiment [3] concerns MRSA 16339. The experiment can be described thus: microbe, parasite or virus in culture. The method, then: as §1, §2
Experiment [4] deals with Bacillus subtilis BS01. The experiment can be described thus: microbe, parasite or virus in culture. The procedure:
as §1, §2

Experiment [5] has as its system Micrococcus luteus ML01. The experiment can be described thus: microbe, parasite or virus in culture. The procedure:
as §1, §2

In experiment [6] the test system is Staphylococcus aureus ATCC 29213. The experiment can be described thus: microbe, parasite or virus in culture. The procedure: as §1, §2
The test system of experiment [7] is Enterococcus faecalis ATCC 29212. In words: microbe, parasite or virus in culture. The procedure: as §1, §2
Experiment [8] deals with MRSA 16162. In words: microbe, parasite or virus in culture. The procedure:
as §1, §2

In experiment [9] the test system is Enterococcus gallinarum LJH11. The experiment can be described thus: microbe, parasite or virus in culture. The method, then: as §1, §2
In experiment [10] the test system is Staphylococcus simulans LJH13. The experiment can be described thus: microbe, parasite or virus in culture. The method, then: as §1, §2
In experiment [11] the test system is Staphylococcus haemolyticus LJH9. The experiment can be described thus: microbe, parasite or virus in culture. The method, then: as §1, §2
Experiment [12] concerns methicillin-resistant Staphylococcus aureus (MRSA) shhsE1. In words: microbe, parasite or virus in culture. The method, then:
as §1, §2

In experiment [13] the test system is MRSA 745524. In words: microbe, parasite or virus in culture. The procedure:
as §1, §2

Experiment [14] concerns Gram-positive pathogens. Particulars: for Gram positive antibacterial activity for desotamides (in words) / Gram positive antibacterial activity for wollamides (in words): summary; for Gram positive antibacterial activity for desotamides (in words): Figure 2; for Gram positive antibacterial activity for wollamides (in words): Figure 3. The method, then:
as §1, §2

The mark [15] stands for this setting: E. coli ATCC 13124, two-fold serial dilution, Mueller-Hinton broth, 96-well plate, CLSI-based, maximum test concentration 128 μg/mL.
Where [16] appears, read: clinical drug-resistant Klebsiella pneumoniae 15580, two-fold serial dilution, Mueller-Hinton broth, 96-well plate, CLSI-based, maximum test concentration 128 μg/mL.
The mark [17] stands for this setting: clinical MRSA shhsE1, two-fold serial dilution, Mueller-Hinton broth, 96-well plate, CLSI-based, maximum test concentration 128 μg/mL.
The mark [18] stands for this setting: clinical MRSA 16339, two-fold serial dilution, Mueller-Hinton broth, 96-well plate, CLSI-based, maximum test concentration 128 μg/mL.
The mark [19] stands for this setting: Bacillus subtilis BS01, two-fold serial dilution, Mueller-Hinton broth, 96-well plate, CLSI-based, maximum test concentration 128 μg/mL.
Where [20] appears, read: Micrococcus luteus ML01, two-fold serial dilution, Mueller-Hinton broth, 96-well plate, CLSI-based, maximum test concentration 128 μg/mL.
The mark [21] stands for this setting: Staphylococcus aureus ATCC 29213, two-fold serial dilution, Mueller-Hinton broth, 96-well plate, CLSI-based, maximum test concentration 128 μg/mL.
Where [22] appears, read: Enterococcus faecalis ATCC 29212, two-fold serial dilution, Mueller-Hinton broth, 96-well plate, CLSI-based, maximum test concentration 128 μg/mL.
The mark [23] stands for this setting: clinical MRSA 16162, two-fold serial dilution, Mueller-Hinton broth, 96-well plate, CLSI-based, maximum test concentration 128 μg/mL.
Where [24] appears, read: Enterococcus gallinarum LJH11, drug-resistant poultry pathogen, two-fold serial dilution, Mueller-Hinton broth, 96-well plate, CLSI-based, maximum test concentration 128 μg/mL.
Where [25] appears, read: Staphylococcus simulans LJH13, drug-resistant poultry pathogen, two-fold serial dilution, Mueller-Hinton broth, 96-well plate, CLSI-based, maximum test concentration 128 μg/mL.
Setting [26] is: Staphylococcus haemolyticus LJH9, drug-resistant poultry pathogen, two-fold serial dilution, Mueller-Hinton broth, 96-well plate, CLSI-based, maximum test concentration 128 μg/mL.
[27] abbreviates: clinical MRSA 745524, two-fold serial dilution, Mueller-Hinton broth, 96-well plate, CLSI-based, maximum test concentration 128 μg/mL.

In brackets after ≈: the same amount, converted by molar mass. Like-named read-outs stand apart in the source and are kept apart here. Non-standard residues stand in square brackets, D forms with d. Residues, ends and D or L forms follow the SMILES beside them. aIle = CC[C@@H](C)[C@H](N)C(=O)O; dOrn = NCCC[C@@H](N)C(=O)O Some results are limits rather than exact numbers.

For polymyxin [reference compound], the MIC came out at 16 µg/mL in experiment [1] (setting [15]) and 2 µg/mL in [2] (setting [16]).
Turning to `CC[C@@H](C)[C@@H]1NC(=O)[C@@H](CC(C)C)NC(=O)[C@H](CC(C)C)NC(=O)[C@H](Cc2c[nH]c3ccccc23)NC(=O)CNC(=O)[C@H](CC(N)=O)NC1=O` [Compound 1, desotamide A] (cyclo(GWL[dL][aIle]N)), the MIC in [3] (16339) is 16 µg/mL (≈ 23 µM); in experiment [4] (BS01) it was 32 µg/mL (≈ 45.9 µM); in experiment [5] (ML01) it was 32 µg/mL (≈ 45.9 µM); in experiment [6] (ATCC 29213), 32 µg/mL (≈ 45.9 µM); in experiment [7] (ATCC 29212), 64 µg/mL (≈ 91.8 µM); in experiment [8] (16162) it was 32 µg/mL (≈ 45.9 µM). The MIC is 64 µg/mL (≈ 91.8 µM) in [9]; 16 µg/mL (≈ 23 µM) in [10]; 128 µg/mL (≈ 184 µM) in experiment [11]; 64 µg/mL (≈ 91.8 µM) in experiment [12] (methicillin-resistant shhsE1); 8 µg/mL (≈ 11.5 µM) in [13] (745524); over 128 µg/mL in [1] (ATCC 13124). For the same compound, the MIC in experiment [2] (15580) is over 128 µg/mL. The “Gram positive antibacterial activity for desotamides (in words)” value in experiment [14] is on record as “Moderately active”.
For `CC(C)C[C@@H]1NC(=O)[C@H](Cc2c[nH]c3ccccc23)NC(=O)[C@@H](CCCNC(=N)N)NC(=O)[C@H](CC(N)=O)NC(=O)[C@H](C(C)C)NC(=O)[C@@H](CC(C)C)NC1=O` [Compound 8, Wollamide B1] (cyclo([dR]WL[dL]VN)), the MIC in [3] (16339) was 16 µg/mL (≈ 20.5 µM); in [4] (BS01) it was 8 µg/mL (≈ 10.2 µM); in experiment [5] (ML01), 8 µg/mL (≈ 10.2 µM); in experiment [6] (ATCC 29213), 16 µg/mL (≈ 20.5 µM); in experiment [7] (ATCC 29212), 32 µg/mL (≈ 40.9 µM); in [8] (16162), 16 µg/mL (≈ 20.5 µM). Also, the MIC came to 64 µg/mL (≈ 81.8 µM) in experiment [9]; 8 µg/mL (≈ 10.2 µM) in experiment [10]; 32 µg/mL (≈ 40.9 µM) in experiment [11]; 16 µg/mL (≈ 20.5 µM) in [12] (setting [17]); 16 µg/mL (≈ 20.5 µM) in [13] (745524); 128 µg/mL (≈ 164 µM) in experiment [1] (setting [15]). In addition, the MIC in experiment [2] (15580) is over 128 µg/mL. Also, the “fold increase of anti-Gram-positive activity compared to wollamide B (7)” value in experiment [14] (Gram-positive bacteria) was 2–4 folds. The “Gram positive antibacterial activity for wollamides (in words)” value in [14] was 2–4-Fold more active than 7.
As to `CC(C)C[C@@H]1NC(=O)[C@H](Cc2c[nH]c3ccccc23)NC(=O)[C@@H](CCCN)NC(=O)[C@H](CC(N)=O)NC(=O)[C@H](C(C)C)NC(=O)[C@@H](CC(C)C)NC1=O` [Compound 7, Wollamide B] (cyclo([dOrn]WL[dL]VN)), the MIC in experiment [3] (setting [18]) is 64 µg/mL (≈ 86.5 µM); in experiment [4] (setting [19]), 32 µg/mL (≈ 43.2 µM); in [5] (setting [20]) it was 16 µg/mL (≈ 21.6 µM); in [6] (setting [21]), 32 µg/mL (≈ 43.2 µM); in experiment [7] (setting [22]), 128 µg/mL (≈ 173 µM); in experiment [8] (setting [23]), 64 µg/mL (≈ 86.5 µM). Further, the MIC is over 128 µg/mL in [9] (setting [24]); 16 µg/mL (≈ 21.6 µM) in experiment [10] (setting [25]); 64 µg/mL (≈ 86.5 µM) in experiment [11] (setting [26]); 32 µg/mL (≈ 43.2 µM) in [12] (setting [17]); 32 µg/mL (≈ 43.2 µM) in [13] (setting [27]); 128 µg/mL (≈ 173 µM) in experiment [1] (setting [15]). Also, the MIC in experiment [2] (setting [16]) is over 128 µg/mL. The “Gram positive antibacterial activity for wollamides (in words)” value in experiment [14] was “Moderately active”.
For the compound “cyclo(Asn-Ile-D-Leu-Leu-Trp-D-Arg) (head to tail) [Compound 19, Desotamide A0]”, the MIC in experiment [3] (setting [18]) came to 128 µg/mL; in experiment [4] (setting [19]), 32 µg/mL; in experiment [5] (setting [20]) it was 32 µg/mL; in experiment [6] (setting [21]) it was 64 µg/mL; in [7] (setting [22]) it was 128 µg/mL; in [8] (setting [23]) it was 64 µg/mL. Further, the MIC in [9] (setting [24]) was over 128 µg/mL; in experiment [10] (setting [25]) it was 32 µg/mL; in experiment [11] (setting [26]), 64 µg/mL; in experiment [12] (setting [17]), 64 µg/mL; in experiment [13] (setting [27]) it was 64 µg/mL; in [2] (setting [16]) it was over 128 µg/mL. Besides, in experiment [14], the “Gram positive antibacterial activity for desotamides (in words)” value is “Slightly less active than 1”.
In the case of `CC[C@@H](C)[C@@H]1NC(=O)[C@H](CC(N)=O)NC(=O)[C@@H](Cc2c[nH]cn2)NC(=O)[C@H](Cc2c[nH]c3ccccc23)NC(=O)[C@H](CC(C)C)NC(=O)[C@@H](CC(C)C)NC1=O` [Compound 12, Desotamide A3] (cyclo(LW[dH]N[aIle][dL])), the MIC in [3] (16339), in experiment [4] (BS01), in experiment [5] (ML01), in experiment [6] (ATCC 29213), in experiment [7] (ATCC 29212) and in experiment [8] (16162) was over 128 µg/mL each time. In addition, the MIC in [9], in experiment [10], in experiment [11], in experiment [12] (methicillin-resistant shhsE1), in experiment [13] (745524) and in experiment [2] (15580) was over 128 µg/mL each time. Further, in experiment [14], the “Gram positive antibacterial activity for desotamides (in words)” value is listed as “Inactive”.
On to “cyclo(Asn-Ile-D-Leu-Leu-Trp-D-His) (head to tail) [Compound 18, Desotamide A9]”, for which the MIC in experiment [3] (setting [18]), in experiment [4] (setting [19]), in [5] (setting [20]), in experiment [6] (setting [21]), in experiment [7] (setting [22]) and in experiment [8] (setting [23]) was over 128 µg/mL each time. Further, the MIC in [9] (setting [24]), in experiment [10] (setting [25]), in experiment [11] (setting [26]), in experiment [12] (setting [17]), in [13] (setting [27]) and in experiment [2] (setting [16]) was over 128 µg/mL throughout. Also, the “MIC values against Gram-positive pathogens (summary over the panel)” value in [14] (series of Gram-positive pathogens including MRSA, summary of Table 1) was over 128 µg/mL. The “Gram positive antibacterial activity for desotamides (in words)” value in experiment [14] was “Inactive”.
Take `CC[C@H](C)[C@@H]1NC(=O)[C@H](CC(N)=O)NC(=O)[C@@H](Cc2c[nH]cn2)NC(=O)[C@H](Cc2c[nH]c3ccccc23)NC(=O)[C@H](CC(C)C)NC(=O)[C@@H](CC(C)C)NC1=O` [Compound 14, Desotamide A5] (cyclo(I[dL]LW[dH]N)): the MIC in experiment [3] (16339), in experiment [4] (BS01), in experiment [5] (ML01), in experiment [6] (ATCC 29213), in [7] (ATCC 29212) and in experiment [8] (16162) was 64 µg/mL (≈ 82.4 µM) throughout. In addition, the MIC in experiment [9] was 128 µg/mL (≈ 165 µM); in experiment [10] it was 64 µg/mL (≈ 82.4 µM); in [11], 64 µg/mL (≈ 82.4 µM); in experiment [12] (methicillin-resistant shhsE1), 64 µg/mL (≈ 82.4 µM); in experiment [13] (745524), 64 µg/mL (≈ 82.4 µM); in experiment [2] (15580), over 128 µg/mL. For the same compound, the “fold less potent MIC value compared to 1” value in experiment [14] (Gram-positive bacteria, generally) is given as 2 fold. The “Gram positive antibacterial activity for desotamides (in words)” value in experiment [14] is recorded as 2-Fold less active than 1.
